# B1: mero-CBD: cdc42 binding domain of WASP conjugated to the merocyanine dye shown in FIG. 11 (conjugate)
# chain: DIQNPDITSSRYRGLPAPGPSPADKKRSGKKKISKADIGAPSGFKHVSHVGWDPQNGFDVNNLDPDLRSLCSRAGISEAQLTDAETSKLIYDFIEDQGGLEAVRQEMRRQEPLPPPPPPSR
# modifications: left off: small tags and cut ends
# How the values were obtained:
# [1] = Spectral data for selected merocyanine dyes (absorbance and fluorescence spectra); type: physicochemical; design: Absorption Maximum / Emission Maximum: unit not given here; details: in n-butanol
# Procedure: Absorbance spectra were recorded on Hewlett-Packard HP8452 diode array spectrophotometer and fluorescence spectra were recorded on SPEX Fluorolog 2 spectrometer.
# GFP-Rac1 = target: T1, GFP-Rac1 (Homo sapiens, UniProt P63000); assay: In vitro FRET titration of Alexa-PBD with GFP-Rac1; type: binding; details: at saturating Alexa-PBD; read-out: apparent GTPγS dissociation constant
# T1 construct: 6His; made in house; host or cells: E. coli BL21DE3 (stated for PBD; 'similar procedure' for GFP-Rac1)
# Procedure: FRET between Alexa-PBD and GFP-Rac1 was efficient and dependent on GTP-Rac 1 binding. […] Purified GFP-Rac1 (200 nM) was bound to varying concentrations of […] or GDP at low magnesium by 30 min incubation at 30° C. as described previously (U. G. Knaus et al., J. Biol. Chem. 267, 23575-23582 (1992)), using the following nucleotide equilibration buffer: 50 mM Tris HCl (pH 7.6), 50 mM NaCl, 5 mM MgCl2, 10 mM EDTA, and 1 mM DTT. […] Spectra were corrected for dilution upon Alexa-PBD addition. Alexa-PBD concentrations were either varied as shown, or maintained at 1 micromolar when saturating Alexa-PBD was required. The spectra shown were corrected for direct excitation of the Alexa fluorophore by acquiring spectra of Alexa-PBD alone at equivalent concentrations, and subtracting these from spectra shown in FIG. 7. Kd were determined by fitting to the equation: Y=A*X/(Kd+X). In the FIG. 7, panel A inset, only points actually used in the curve fitting are shown. Higher, saturating concentrations of AlexaPBD were not used because errors from subtraction of direct Alexa excitation became larger. […] The apparent GTPγS dissociation constant was determined at saturating Alexa-PBD by fitting the experimental data to the Michaelis equation (FIG. 7b). […]
# Rac = target: T2, Rac (Homo sapiens, UniProt P63000); details: literature value; read-out: previously reported GTPγS dissociation constant; cited from earlier work
# T2 construct: ECFP or EYFP (fusion partner)
# [2] = Storage of labeled CBD aliquots; type: physicochemical; details: aliquots 15 to 50 μM stored at −80° C. for 6 months
# Procedure: Conjugation of CBD with fluorescent dyes—Dialyzed CBD samples (100-150 μM) were gently inverted with 6 to 7-fold molar excess of the reactive dye at 25° C. for 3 to 4 hours. The reaction was stopped by addition of 10 mM dithiothreitol (DTT), and the mixture was incubated for 15 min. Unreacted dye was separated from the labeled protein using […] (Pharmacia) gel filtration column equilibrated and developed with 25 mM Na2HPO4 (pH 7.5). Purity of the eluting fractions was analyzed by running an aliquot on an SDS gel and visualizing the fluorescence. Only the fractions containing minimal amounts of free dye were used in the subsequent experiments. Dye-to-protein ratio was determined by measuring CBD concentration (ε^280=8,250 M^−1), and A4C concentration at 617 nm (ε=70,000 M^−1 in dimethylsulfoxide) or Alexa546 at 554 nm (ε=104,000 M^−1 in 50 mM potassium phosphate, pH 7.0). Concentrations of CBD were independently confirmed by Coomassie Plus assay (Pierce) calibrated with bovine serum albumin as a standard. Dye-to-protein ratios thus obtained varied between 0.8 and 1.2, 1.7 and 2.1 for the single-dye and dual-dye conjugates, respectively. Aliquots of the labeled CBD (15 to 50 μM) were stored at −80° C. […] In this example, CBD-conjugates were made with the dye shown in FIG. 11, and are referred to as mero-CBD (for merocyanines dye conjugated to CBD).
# Rac1 = target: T3, Rac1 (Homo sapiens, UniProt P63000); assay: Fluorescence of mero-CBD in presence of activated Rac1; type: binding; details: Rac1 pre-equilibrated with GTPγS
# T3 construct: 6His; made in house; host or cells: E. coli BL21DE3 (by 'analogous procedures')
# Procedure: (§1) Analyses of the solvatochromic activation indicator—A solution of mero-CBD (300 nM) in assay buffer was mixed 1:1 (v/v) with solutions of cdc42 (concentration as indicated), pre-equilibrated with 10 mM GDP or GTPγS as described in Knaus, U. G., Heyworth, P. G., Kinsella, B. T., Cumutte, J. T., and Bokoch, G. M. (1992) J. Biol. Chem. 267, 23575-23582. Emission wavelength of 630 nm and excitation wavelength of 600 nm were used to acquire excitation and emission spectra, respectively. For nucleotide dependence, cdc42 (500 nM) was pre-incubated with varying concentrations of GTPγS (1 to 500 nM). Rac1 and RhoA GTPases were pre-equilibrated with GTPγS in the same manner.
# (§2) Fluorescence increase as a measure of CBD-cdc42 interaction—The functionality and specificity of mero-CBD was characterized by measuring fluorescence in the presence of saturating amounts of cdc42-GDP or cdc42-GTPγS. […] Negligible increase (<5%) was also observed in the presence of activated Rac1. No effect on the mero-CBD fluorescence was observed when RhoA-GTPγS was present. Furthermore, even in the presence of excess of activated Rac1 and RhoA, GDP- and GTPγS-bound forms of cdc42 were easily distinguished by CBD-A4C fluorescence (data not shown).
# cdc42 = target: T4, cdc42 (Homo sapiens, UniProt P60953); assay: Fluorescence of mero-CBD on binding cdc42; details: for increase of fluorescence on binding activated cdc42 (cdc42-GTPγS): saturating cdc42-GTPγS
# T4 construct: 6His; made in house; host or cells: E. coli BL21DE3 (stated for CBD; 'analogous procedures' for cdc42)
# Procedure: as §1, §2
# RhoA = target: T5, RhoA (Homo sapiens, UniProt P61586); assay: Fluorescence of mero-CBD in presence of RhoA-GTPγS; type: binding; details: RhoA-GTPγS present
# T5 construct: 6His; made in house; host or cells: E. coli BL21DE3 (by 'analogous procedures')
# Procedure: as §1, §2
# T4 sequence (P60953 whole entry, species assumed): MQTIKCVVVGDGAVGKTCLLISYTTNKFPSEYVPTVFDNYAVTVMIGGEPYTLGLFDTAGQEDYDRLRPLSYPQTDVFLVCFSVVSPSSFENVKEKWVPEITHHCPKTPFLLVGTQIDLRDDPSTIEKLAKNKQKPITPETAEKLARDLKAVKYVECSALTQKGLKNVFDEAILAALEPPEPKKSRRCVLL
# T5 sequence (P61586 whole entry, species assumed): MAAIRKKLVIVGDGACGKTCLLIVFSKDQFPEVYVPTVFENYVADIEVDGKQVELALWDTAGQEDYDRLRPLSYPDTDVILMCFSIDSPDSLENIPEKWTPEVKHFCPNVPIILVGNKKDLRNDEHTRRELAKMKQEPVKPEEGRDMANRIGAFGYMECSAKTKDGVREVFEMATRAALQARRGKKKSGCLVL
Molecule,Absorption Maximum [1],Emission Maximum [1],Extinction coefficient (*10^−3) [1],Quantum Yield [1],other results
CC1(C)/C(=C/C=C/C=C2/C(=O)c3ccccc3S2(=O)=O)N(CCCS(=O)(=O)[O-])c2ccccc21.[Na+] [Compound 3],586,618,120,0.17,
CC1(C)/C(=C/C=C/C=C2/C(=O)c3ccccc3C2=C(C#N)C#N)N(CCCS(=O)(=O)[O-])c2ccccc21.[Na+] [Compound 4],667,693,80,0.10,
Nc1nc2c(ncn2[C@@H]2O[C@H](COP(=O)(O)OP(=O)(O)OP(O)(O)=S)[C@@H](O)[C@H]2O)c(=O)[nH]1 [GTPγS],,,,,Kd (GFP-Rac1): 47 ± 9 nM; Kd (Rac): 50 nM
B1,,,,,loss of binding ability on storage [2]: No significant loss of binding ability; increase of fluorescence in the presence of activated Rac1 (Rac1): < 5%; increase of fluorescence with cdc42-GDP (cdc42; saturating cdc42-GDP): but not cdc42-GDP; increase of fluorescence on binding activated cdc42 (cdc42-GTPγS) (cdc42): Approximately 3.5 fold; increase of fluorescence on binding activated cdc42 (cdc42-GTPγS) (cdc42; listed as CBD biosensor): up to 3.5 fold; effect of RhoA-GTPγS on fluorescence (RhoA): No effect
